# Experimental data published in patent US20240294478A1, “ANTI-CANCER COMPOUNDS AND METHODS OF USE” (YALE UNIVERSITY, priority 2021, published 2024).
# Where two headings read alike, the source gives them in different places.
# What was measured:
# [1] = system: LN229 MGMT+/MMR+ cells; test: Short-term cell viability assay, LN229 MGMT+/MMR+; type: cell-based; conditions: Homo sapiens, read-out: IC50 against LN229 cell lines, MGMT+ MMR+
# Experimental: (§1) LN229 MGMT- and MGMT+ cell lines were a gift from B. Kaina (Johannes Gutenberg University Mainz, Mainz, Germany) and grown in Gibco® Duilbecco's Modified Eagle Medium with 10% fetal bovine serum (DMEM). For each compound tested, the relationship between MGMT status and MMR status and compound activity, in terms of IC50 values ([…]), was determined by the following method. On day 1, LN229 isogenic cells of varying MGMT and MMR status were seeded in 96 well format at a density of 2000 cells/well in 100 μL of DMEM media and allowed to adhere overnight. On day 2, a drug master plate was made with 100×the desired maximal concentration of test compound and serially diluted by 2 until 100×the minimal desired concentration, with one DMSO control. Then daughter plates were created with varied concentrations from 3-times the minimal concentration to 3-times the maximal desired concentration. Afterwards, 50 μL of daughter drug plate was added to 100 μL of the seeded cells for a final concentration of 1×in triplicate. Cells were allowed to grow for 6 days. On day 7, the cells were fixed, and stained with Hoechst nuclear dye and imaged to determine growth inhibition.
# (§2) For each compound tested, the relationship between MGMT status and MMR status and compound activity, in terms of IC50 values (in μM), was determined. In addition, for each compound, the therapeutic index (TI) was calculated, according to the equation MGMT TI=IC50 (MGMT+/MMR+) divided by IC50 (MGMT−/MMR+). The T1 indicates the efficacy of a compound in treating the targeted MGMT-cancer cells as compared to potential for the same compound to damage, or have adverse effects against, normal cells which are MGMT+cells, The higher the value of the TI, the safer the compound is. […] MMR RI (resistance index)=IC50 (MGMT−/MMR−) divided by IC50 (MGMT−/MMR+). The higher the value of the RI, the less likely that resistance to the compound will develop.
# (§3) Short-term Cell Viability Assay. Cells were seeded in 96-well plates at 1000 or 2000 cells/well and allowed to adhere at 23° C. for 60 min and then incubated overnight at 37° C. Cells were treated with indicated concentrations of compounds in triplicate for 4-6 days prior to fixation with 3.7% paraformaldehyde and nuclear staining with 1 μg/mL Hoechst 33342 dye. Cells were imaged on a Cytation 3 imaging reader (BioTek) and quantified using CellProfiler software. For in vitro short-term growth delay experiments, IC50 values were determined from the nonlinear regression equation, [inhibitor] vs normalized response with variable slope.
# [2] = system: LN229 MGMT+/MMR− cells; test: Short-term cell viability assay, LN229 MGMT+/MMR- (shRNA targeting MSH2); type: cell-based; conditions: Homo sapiens
# Experimental: as §1, §2, §3
# [3] = system: LN229 MGMT−/MMR− cells; test: Short-term cell viability assay, LN229 MGMT-/MMR- (shRNA targeting MSH2); type: cell-based, human; conditions: for IC50: Homo sapiens, read-out: IC50 against LN229 cell lines, MGMT− MMR−; for activity in MGMT−/MMR− cells, in words: LN229 MGMT−/MMR−
# Experimental: as §1
# For each compound tested, the relationship between MGMT status and MMR status and compound activity, in terms of IC50 values (in μM), was determined. In addition, for each compound, the therapeutic index (TI) was calculated, according to the equation MGMT TI=IC50 (MGMT+/MMR+) divided by IC50 (MGMT−/MMR+). […] MMR RI (resistance index)=IC50 (MGMT−/MMR−) divided by IC50 (MGMT−/MMR+).
# as §3, with “Cells were treated with indicated concentrations of compounds in triplicate for 4-6 days prior to fixation with 3.7% paraformaldehyde and nuclear staining with 1 μg/mL Hoechst 33342 dye.” left out
# [4] = system: MGMT−/MMR− cells; test: IR alkaline comet assay, LN229 MGMT-/MMR-, time course; type: cell-based, human; conditions: time points 2-24 h
# Experimental: The IR alkaline comet assay, adapted for ICL detection was performed to determine if ICLs were formed in MGMT-cells treated with KL-50. In this assay, cells were sequentially exposed to genotoxins and ionizing radiation, and then analyzed by single cell alkaline gel electrophoresis. Attenuation of the IR-induced comet tail is indicative of ICL formation.
# IR Alkaline Comet Assay. This assay was performed utilizing the CometAssay™ Kit (Trevigen) according to the alkaline assay protocol, with the addition of slide irradiation post-lysis. Cells were trypsinized, washed with 1×PBS, added to melted Comet LMAgarose (Trevigen), and spread on Trevigen CometSlides at a density of 1000 cells per sample in 50 μL. Lysis solution (Trevigen) with 10% DMSO was added overnight at 4° C. Slides were removed from lysis buffer and irradiated to 0 or 10 Gy using an XRAD 320 X-Ray System (Precision X-Ray) at 320 kV, 12.5 mA, and 50.0 cm SSD, with a 2 mm Al filter and 20 cm×20 cm collimator. Slides were then placed in alkaline buffer (200 mM NaOH, 1 mM EDTA) for 45 min, followed by electrophoresis in 850 mL alkaline buffer for 45 min at 4° C. Slides were washed and stained with SYBR gold (Invitrogen) per Trevigen assay protocol. Slides were imaged on a Cytation 3 imaging reader (BioTek), and comets were analyzed using CometScore 2.0 software (TriTek).
# [5] = system: LN229 MGMT−/MMR+ cells; test: Short-term cell viability assay, LN229 MGMT-/MMR+; type: cell-based, human; conditions: for IC50: Homo sapiens, read-out: IC50 against LN229 cell lines, MGMT− MMR+
# Experimental: as §1, §2, §3
# [6] = system: MGMT− LN229 cells; test: Clonogenic survival assay, LN229 MGMT- cells; type: cell-based, human; conditions: at less than 100 μM of E1, regardless of MMR status
# Experimental: (§4) In vitro clonogenic survival assays (CSAs) were performed using four isogenic LN229 glioblastoma cell lines.
# (§5) Clonogenic Cell Survival Assay. Cells of each line were pretreated with the test drug in culture for 48-72 hours at the specified dilutions. The cells were then immediately seeded in six-well plates in triplicate at three-fold dilutions, ranging from 9000 to 37 cells per well. Depending on colony size, these plates were kept in the incubator for 10 to 14 days. After incubation, colonies were washed in phosphate-buffered saline (PBS) and stained with crystal violet. Colonies were counted by hand. Counts were normalized to plating efficiency of the corresponding treatment condition.
# [7] = system: four isogenic LN229 glioblastoma cell lines; test: Short-term cell viability assays, statements across the isogenic lines; type: cell-based, human; conditions: regardless of MMR status
# Experimental: as §1, §2, §3
# [8] = system: MGMT+ LN229 cells; test: Clonogenic survival assay, LN229 MGMT+ cells; type: cell-based, human
# Experimental: as §4, §5
# [9] = LN-229, 144 h, Table 1, 6 days growth, Hoechst nuclear count
# [10] = LN-229, 144 h, Table 1, 6 days growth, read-out: IC50 against LN229 cell lines, MGMT+ MMR−
# [11] = LN-229, 144 h, Table 1, 6 days growth
smiles,measurement,setting,value
"NC(=O)c1ncn2c(=O)n(CCCl)nnc12 [MTZ, 3-(2-chloroethyl)-4-oxoimidazo[5,1-d][1,2,3,5]tetrazine-8-carboxamide, reference compound]",IC50,"[1]; LN-229, Table II",61.9 ± 4.7 µM
same,IC50,"[2]; LN-229, Table II, read-out: IC50 against LN229 cell lines, MGMT MMR−",50.8 ± 4.2 µM
same,IC50,"[3]; LN-229, Table II",6.9 ± 0.7 µM
same,"activity in MGMT−/MMR− cells, in words",[3],effective against MGMT−/MMR− cells
same,MGMT− RI (resistance index),"[3]; Table II, IC50 (MGMT−/MMR−) divided by IC50 (MGMT−/MMR+)",0.8
same,DNA damage in unirradiated samples,[4],maximal damage at 2 h
same,"DNA mobility after IR, rate of ICL formation",[4],reduced DNA mobility within 2 h
same,IC50,"[5]; LN-229, Table II",9 ± 0.4 µM
same,"TI / RI, in words",[5]; LN229 isogenic lines,poor TI
same,MGMT− TI (therapeutic index),"[5]; Table II, IC50 (MGMT+/MMR+) divided by IC50 (MGMT−/MMR+)",6.9
"NC(=O)c1[nH]cnc1/N=N/NCCF [Compound E1, 5-[(1E)-3-(2-fluoroethyl)triaz-1-en-1-yl]-1H-imidazole-4-carboxamide]",IC50,[1]; [9],> 100 µM
same,IC50,[2]; [10],> 100 µM
same,surviving fraction of MGMT− cells,[6],dropped sharply
same,IC50,[3]; [11],22 ± 1 µM
same,"activity in MGMT−/MMR− cells, in words",[3],exquisite sensitivity
same,"activity in MGMT+ cells, in words",[7],limited activity
same,surviving fraction of MGMT+ cells,[8]; at concentrations as high as 1000 μM of E1,above 0.1
same,surviving fraction of MGMT+ cells,"[8]; at the same concentration (less than 100 μM of E1), regardless of MMR status",~1.0
same,IC50,[5]; [11],24 ± 2 µM
"CN(CCF)/N=N/c1nc[nH]c1C(N)=O [Compound E5, 4-[(1E)-3-(2-fluoroethyl)-3-methyltriaz-1-en-1-yl]-1H-imidazole-5-carboxamide]",IC50,"[1]; LN-229, 144 h",> 199 µM
same,IC50,"[2]; LN-229, 144 h, read-out: IC50 against LN229 cell lines, MGMT+ MMR−",> 100 µM
same,IC50,"[3]; LN-229, 144 h",> 100 µM
same,IC50,"[5]; LN-229, 144 h",14.2 ± 1 µM
"CC(=O)N(CCF)/N=N/c1[nH]cnc1C(N)=O [Compound E3, (E)-5-(3-acetyl-3-(2-fluoroethyl)triaz-1-en-1-yl)-1H-imidazole-4-carboxamide]",IC50,[1]; [9],> 100 µM
same,IC50,[2]; [10],> 100 µM
same,IC50,[3]; [11],46 ± 4 µM
same,"activity in MGMT−/MMR− cells, in words",[3],exquisite sensitivity
same,"activity in MGMT+ cells, in words",[7],limited activity
same,IC50,[5]; [11],40 ± 2 µM
